Results published in patent publication US20050075375A1 (priority 2003, published 2005).

System: monocistronic NK5.1 HCV replicon in Huh7 cells
Test: HCV replicon assay, monocistronic replicon cell line
Type: cell-based, hepatitis C virus
Settings: Hepatitis C virus, Huh-7, 72 h; table T3 (compounds 471-640); monocistronic replicon in Huh7 cells, 3 days incubation, HCV RNA/GAPDH RNA by TaqMan RT-PCR; read-out: Mono EC50 Median
How it was run: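 Huh7 cells carrying the monocistronic NK5.1 replicon, seeded 24 h before dosing, were exposed to six-point half-log compound series (0.6% DMSO) for 3 days at 37 °C. Replicon RNA was quantified by TaqMan RT-PCR, normalised to GAPDH and compared with DMSO controls to derive EC50.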

Compound | EC50 [µM]
Oc1ccccc1-c1nc(-c2cnccn2)n[nH]1 [Compound 585, 2-(5-pyrazin-2-yl-2H-[1,2,4]triazol-3-yl)-phenol] | > 32
COc1cccc(-c2nc(-c3cnccn3)n[nH]2)c1O [Compound 586, 6-Methoxy-2-(5-pyrazin-2-yl-2H-[1,2,4]triazol-3-yl)-phenol] | > 32
CCN(CC)c1ccc(-c2nc(-c3cnccn3)n[nH]2)c(O)c1 [Compound 587, 5-Diethylamino-2-(5-pyrazin-2-yl-2H-[1,2,4]triazol-3-yl)-phenol] | 23
Oc1ccc(O)c(-c2nc(-c3cnccn3)n[nH]2)c1 [Compound 588, 4-Hydroxy-2-(5-pyrazin-2-yl-2H-[1,2,4]triazol-3-yl)-phenol] | > 32
Oc1ccc2ccccc2c1-c1nc(-c2cnccn2)n[nH]1 [Compound 589, 1-(5-pyrazin-2-yl-2H-[1,2,4]triazol-3-yl)-naphthalen-2-ol] | 7
Oc1c(Br)cc(Br)cc1-c1nc(-c2cnccn2)n[nH]1 [Compound 590, 2,4-Dibromo-6-(5-pyrazin-2-yl-2H-[1,2,4]triazol-3-yl)-phenol] | 14
Oc1c(-c2nc(-c3cnccn3)n[nH]2)ccc2ccccc12 [Compound 591, 2-(5-pyrazin-2-yl-2H-[1,2,4]triazol-3-yl)-naphthalen-1-ol] | 16
Nc1ccc(-c2n[nH]c(-c3cc(Br)ccc3O)n2)nc1 [Compound 592, 2-[5-(5-Amino-pyridin-2-yl)-2H-[1,2,4]triazol-3-yl]-4-bromo-phenol] | > 32
CC(=O)Nc1ccc(-c2n[nH]c(-c3cc(Br)ccc3O)n2)nc1 [Compound 593, N-{6-[5-(5-Bromo-2-hydroxy-phenyl)-1H-[1,2,4]triazol-3-yl]-pyridin-3-yl}-acetamide] | 48.7
COc1ccc(O)c(-c2nc(-c3ccc(N)cn3)n[nH]2)c1 [Compound 594, 2-[5-(5-Amino-pyridin-2-yl)-2H-[1,2,4]triazol-3-yl]-4-methoxy-phenol] | > 19
COc1ccc(O)c(-c2nc(-c3ccc(NC(C)=O)cn3)n[nH]2)c1 [Compound 595, N-{6-[5-(5-methoxy-2-hydroxy-phenyl)-1H-[1,2,4]triazol-3-yl]-pyridin-3-yl}-acetamide] | 41.8
Cn1nc(-c2ccccn2)nc1-c1cc(Br)ccc1O [Compound 596, 4-Bromo-2-(2-methyl-5-pyridin-2-yl-2H-[1,2,4]triazol-3-yl)-phenol] | 15
Cn1nc(-c2ccccn2)nc1-c1cc([N+](=O)[O-])ccc1O [Compound 597, 4-Nitro-2-(2-methyl-5-pyridin-2-yl-2H-[1,2,4]triazol-3-yl)-phenol] | 11
COc1ccc(O)c(-c2nc(-c3ccccn3)nn2C)c1 [Compound 598, 4-Methoxy-2-(2-methyl-5-pyridin-2-yl-2H-[1,2,4]triazol-3-yl)-phenol] | > 32
Cn1nc(-c2ccccn2)nc1-c1cc(Cl)ccc1O [Compound 599, 4-Chloro-2-(2-methyl-5-pyridin-2-yl-2H-[1,2,4]triazol-3-yl)-phenol] | 12
Cn1nc(-c2ccccn2)nc1-c1ccc(OCc2ccccc2)cc1O [Compound 600, 5-Benzyloxy-2-(2-methyl-5-pyridin-2-yl-2H-[1,2,4]triazol-3-yl)-phenol] | 5
COc1ccc(-c2nc(-c3ccccn3)nn2C)c(O)c1 [Compound 601, 5-Methoxy-2-(2-methyl-5-pyridin-2-yl-2H-[1,2,4]triazol-3-yl)-phenol] | > 32
Cn1nc(-c2ccccn2)nc1-c1ccccc1O [Compound 602, 2-(2-methyl-5-pyridin-2-yl-2H-[1,2,4]triazol-3-yl)-phenol] | > 32
COc1cccc(-c2nc(-c3ccccn3)nn2C)c1O [Compound 603, 6-Methoxy-2-(2-methyl-5-pyridin-2-yl-2H-[1,2,4]triazol-3-yl)-phenol] | > 32
Cn1nc(-c2ccccn2)nc1-c1cc(O)ccc1O [Compound 604, 4-Hydroxy-2-(2-methyl-5-pyridin-2-yl-2H-[1,2,4]triazol-3-yl)-phenol] | 37.6
Cn1nc(-c2ccccn2)nc1-c1c(O)ccc2ccccc12 [Compound 605, 1-(2-methyl-5-Pyridin-2-yl-2H-[1,2,4]triazol-3-yl)-naphthalen-2-ol] | 9
Cn1nc(-c2ccccn2)nc1-c1ccc2ccccc2c1O [Compound 606, 2-(2-Methyl-5-pyridin-2-yl-2H-[1,2,4]triazol-3-yl)-naphthalen-1-ol] | 2.4
Cc1cccnc1-c1nc(-c2cc([N+](=O)[O-])ccc2O)n(C)n1 [Compound 607, 4-Nitro-2-[2-methyl-5-(3-methyl-pyridin-2-yl)-2H-[1,2,4]triazol-3-yl]-phenol] | 2.8
Cc1cccnc1-c1nc(-c2cc(F)ccc2O)n(C)n1 [Compound 608, 4-Fluoro-2-[2-methyl-5-(3-methyl-pyridin-2-yl)-2H-[1,2,4]triazol-3-yl]-phenol] | 8.1

Compound | EC50 [µM]
COc1ccc(O)c(-c2nc(-c3ncccc3C)nn2C)c1 [Compound 609, 4-Methoxy-2-[2-methyl-5-(3-methyl-pyridin-2-yl)-2H-[1,2,4]triazol-3-yl]-phenol] | 17
Cc1cccnc1-c1nc(-c2cc(Cl)ccc2O)n(C)n1 [Compound 610, 4-Chloro-2-[2-methyl-5-(3-methyl-pyridin-2-yl)-2H-[1,2,4]triazol-3-yl]-phenol] | 2.5
Cc1cccnc1-c1nc(-c2ccc(OCc3ccccc3)cc2O)n(C)n1 [Compound 611, 5-Benzyloxy-2-[2-methyl-5-(3-methyl-pyridin-2-yl)-2H-[1,2,4]triazol-3-yl]-phenol] | > 3.2
Cc1cccnc1-c1nc(-c2cc(Br)ccc2O)n(C)n1 [Compound 612, 4-Bromo-2-[2-methyl-5-(3-methyl-pyridin-2-yl)-2H-[1,2,4]triazol-3-yl]-phenol] | 2.4
COc1ccc(-c2nc(-c3ncccc3C)nn2C)c(O)c1 [Compound 613, 5-Methoxy-2-[2-methyl-5-(3-methyl-pyridin-2-yl)-2H-[1,2,4]triazol-3-yl]-phenol] | 6.4
Cc1cccnc1-c1nc(-c2ccccc2O)n(C)n1 [Compound 614, 2-[2-methyl-5-(3-methyl-pyridin-2-yl)-2H-[1,2,4]triazol-3-yl]-phenol] | 6.9
COc1cccc(-c2nc(-c3ncccc3C)nn2C)c1O [Compound 615, 6-Methoxy-2-[2-methyl-5-(3-methyl-pyridin-2-yl)-2H-[1,2,4]triazol-3-yl]-phenol] | 18
Cc1cccnc1-c1nc(-c2cc(O)ccc2O)n(C)n1 [Compound 616, 4-Hydroxy-2-[2-methyl-5-(3-methyl-pyridin-2-yl)-2H-[1,2,4]triazol-3-yl]-phenol] | 35.8
Cc1cccnc1-c1nc(-c2c(O)ccc3ccccc23)n(C)n1 [Compound 617, 1-[2-methyl-5-(3-methyl-pyridin-2-yl)-2H-[1,2,4]triazol-3-yl]-naphthalen-2-ol] | > 19
Cc1cccnc1-c1nc(-c2ccc3ccccc3c2O)n(C)n1 [Compound 618, 2-[2-methyl-5-(3-methyl-pyridin-2-yl)-2H-[1,2,4]triazol-3-yl]-naphthalen-1-ol] | 1.5
Oc1c(Cl)cc(Cl)cc1-c1nc(-c2ccccn2)n[nH]1 [Compound 619, 4,6-Dichloro-2-(5-pyridin-2-yl-2H-[1,2,4]triazol-3-yl)-phenol] | 0.3
Oc1c(Br)cc(Br)cc1-c1nc(-c2ccccn2)n[nH]1 [Compound 620, 4,6-Dibromo-2-(5-pyridin-2-yl-2H-[1,2,4]triazol-3-yl)-phenol] | 0.6
Oc1c(Br)cc(Cl)cc1-c1nc(-c2ccccn2)n[nH]1 [Compound 621, 4-Chloro-6-bromo-2-(5-pyridin-2-yl-2H-[1,2,4]triazol-3-yl)-phenol] | 0.5
Cc1cccnc1-c1n[nH]c(-c2cc(Cl)cc(Cl)c2O)n1 [Compound 622, 4,6-Dichloro-2-[5-(3-methyl-pyridin-2-yl)-2H-[1,2,4]triazol-3-yl]-phenol] | 1.4
Cc1cccnc1-c1n[nH]c(-c2cc(Br)cc(Br)c2O)n1 [Compound 623, 4,6-Dibromo-2-[5-(3-methyl-pyridin-2-yl)-2H-[1,2,4]triazol-3-yl]-phenol] | 1.5
Cc1cccnc1-c1n[nH]c(-c2cc(Cl)cc(Br)c2O)n1 [Compound 624, 4-Chloro-6-bromo-2-[5-(3-methyl-pyridin-2-yl)-2H-[1,2,4]triazol-3-yl]-phenol] | 2.2
Cn1nc(-c2ccccn2)nc1-c1cc(Cl)cc(Cl)c1O [Compound 625, 4,6-Dichloro-2-(2-methyl-5-pyridin-2-yl-2H-[1,2,4]triazol-3-yl)-phenol] | 3.2
Cn1nc(-c2ccccn2)nc1-c1cc(Br)cc(Br)c1O [Compound 626, 4,6-Dibromo-2-(2-methyl-5-pyridin-2-yl-2H-[1,2,4]triazol-3-yl)-phenol] | 4.8
Cn1nc(-c2ccccn2)nc1-c1cc(Cl)cc(Br)c1O [Compound 627, 6-Bromo-4-Chloro-2-(2-methyl-5-pyridin-2-yl-2H-[1,2,4]triazol-3-yl)-phenol] | 2.5
c1ccc(-c2ncn(-c3ccccn3)n2)cc1 [Compound 628, 2-(3-Phenyl-[1,2,4]triazol-1-yl)-pyridine] | > 32
Oc1ccccc1-c1ncn(-c2ccccn2)n1 [Compound 629, 2-(1-Pyridin-2-yl-1H-[1,2,4]triazol-3-yl)-phenol] | 16
Oc1ccc(Cl)cc1-c1ncn(-c2ccccn2)n1 [Compound 630, 4-Chloro-2-(1-pyridin-2-yl-1H-[1,2,4]triazol-3-yl)-phenol] | 11
Oc1ccc(Br)cc1-c1ncn(-c2ccccn2)n1 [Compound 631, 4-Bromo-2-(1-pyridin-2-yl-1H-[1,2,4]triazol-3-yl)-phenol] | 1.4
